Molecules are shown by their SMILES.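 Tested at 5 concentrations; 48 h exposure; 96-well plates; endpoints linearly interpolated, else capped at highest concentration. At the GI50, growth is halved.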 Active and inactive are the calls of the source. Rule as the data show it: active = GI50 up to about 1.1 µM and inactive = higher.

Holding throughout (assay): NCI anticancer screen, dose series, 48 h
The subject of assay [1] is SNB-75.
In assay [2] the test system is HL-60.
Assay [3] relates to A498.
Assay [4] deals with MDA-MB-435.
Assay [5] deals with SK-MEL-2.
Assay [6] has as its system ACHN.
In assay [7] the test system is U-251.
The test system of assay [8] is EKVX.
Assay [9] relates to HOP-62.
Assay [10] concerns PC-3.
In assay [11] the test system is CAKI-1.
Assay [12] deals with HCT-15.
In assay [13] the test system is MOLT-4.
In assay [14] the test system is CCRF-CEM.
For assay [15], the system named is SF-268.
For assay [16], the system named is OVCAR-5.
The test system of assay [17] is SF-539.
Assay [18] concerns 786-0.
In assay [19] the test system is MCF7.
The test system of assay [20] is BT-549.

For `Cc1ccc(O)c(C2=CC3=NNC(=O)C3C(c3cccc(Cl)c3)C2)c1` (stereo unspecified), the GI50 in assay [1] was 18.5 µM (inactive); in assay [2], 51.9 µM (inactive); in assay [3], 61.9 µM (inactive); in assay [4], 32.7 µM (inactive); in [5], 28.2 µM (inactive); in assay [6], 30.5 µM (inactive). For the same compound, the GI50 is 35.5 µM (inactive) in [7]; 37.3 µM (inactive) in [8]; 58.9 µM (inactive) in assay [9]; 40.6 µM (inactive) in assay [10]; 32.5 µM (inactive) in [11]; 30.6 µM in assay [12]. In addition, the GI50 in [13] is 46.2 µM (inactive); in [14], 31.6 µM (inactive); in assay [15], 30.5 µM (inactive); in [16], 51.6 µM (inactive); in assay [17], 45.2 µM (inactive); in assay [18] it was 52.1 µM (inactive). In addition, the GI50 was 17.7 µM (inactive) in [19] and 26.7 µM (inactive) in [20].

For `OC(c1ccccc1)C(F)(F)c1nc2ccccc2o1` (stereo unspecified), the GI50 in assay [1] is > 100 µM (inactive); in assay [2], > 100 µM (inactive); in assay [3], 14.7 µM (inactive); in assay [4] it was 82 µM (inactive); in assay [5], > 100 µM (inactive); in assay [6], > 100 µM (inactive). The GI50 in assay [7] was > 100 µM (inactive); in [8], > 100 µM (inactive); in [9], > 100 µM (inactive); in assay [10] it was > 100 µM (inactive); in [11], > 100 µM (inactive); in [12], above 100 µM. Moreover, the GI50 was 57.3 µM (inactive) in [13]; 61.2 µM (inactive) in [14]; > 100 µM (inactive) in [15]; > 100 µM (inactive) in [17]; > 100 µM (inactive) in assay [18]; > 100 µM (inactive) in assay [19]. Besides, the GI50 in assay [20] is > 100 µM (inactive).

With `Sc1ncc(-c2cncc(-c3cnc(S)nc3)n2)cn1`, the GI50 was > 100 µM (inactive) in assay [1]; > 100 µM (inactive) in assay [2]; 52.2 µM (inactive) in [3]; > 100 µM (inactive) in assay [4]; > 100 µM (inactive) in assay [5]; > 100 µM (inactive) in assay [6]. In addition, the GI50 in [7] was > 100 µM (inactive); in [8], > 100 µM (inactive); in assay [10] it was > 100 µM (inactive); in assay [11], > 100 µM (inactive); in [12] it was above 100 µM; in assay [13], > 100 µM (inactive). For the same compound, the GI50 in assay [14], in assay [15], in assay [16], in assay [17], in [18] and in assay [19] was > 100 µM (inactive) throughout. Besides, the GI50 in [20] is > 100 µM (inactive).

Consider `COc1cc2oc(-c3ccc4c(c3)OCO4)c(OC)c(=O)c2c(O)c1OC`, for which the GI50 in assay [1] is 28.6 µM (inactive); in [2] it was > 50 µM (inactive); in [3], > 50 µM (inactive); in assay [4], 26.9 µM (inactive); in assay [5] it was > 50 µM (inactive); in assay [6] it was > 50 µM (inactive). In addition, the GI50 in [7] is 18.9 µM (inactive); in assay [8] it was > 50 µM (inactive); in assay [9] it was 15.7 µM (inactive); in [10], > 50 µM (inactive); in assay [11] it was > 50 µM (inactive); in [12] it was above 50 µM. The GI50 in [13] was > 50 µM (inactive); in [14] it was > 50 µM (inactive); in assay [15], 29.4 µM (inactive); in assay [16] it was > 50 µM (inactive); in [17], > 50 µM (inactive); in assay [18] it was > 50 µM (inactive). Besides, the GI50 was > 50 µM (inactive) in [19] and 34.9 µM (inactive) in assay [20].

Turning to `O=c1c2ccccc2[nH]c2c(Cl)cc(Cl)c(NC3CCCCC3)c12`, the GI50 was 27.2 µM (inactive) in [1]; 18.2 µM (inactive) in assay [2]; 19.4 µM (inactive) in [3]; 16.9 µM (inactive) in assay [4]; 16.8 µM (inactive) in assay [5]; 15.6 µM (inactive) in assay [6]. In addition, the GI50 is 16.7 µM (inactive) in assay [7]; 23 µM (inactive) in assay [8]; 20.7 µM (inactive) in [9]; 22.8 µM (inactive) in [10]; 31.5 µM (inactive) in [11]; 30.1 µM in [12]. Also, the GI50 in assay [13] is 23 µM (inactive); in assay [14] it was > 10 µM (inactive); in assay [16], 20.1 µM (inactive); in [17], 23.2 µM (inactive); in assay [18] it was 31.3 µM (inactive); in assay [19] it was 18.7 µM (inactive). For the same compound, the GI50 in [20] was 27.5 µM (inactive).

Take `CCCCC1Nc2ccccc2-c2ccnc(Cl)c21` (stereo unspecified): the GI50 in [1] is 13.5 µM (inactive); in assay [2] it was 17.8 µM (inactive); in [3], 16.8 µM (inactive); in [4] it was 16.1 µM (inactive); in assay [5], 16.8 µM (inactive); in assay [6], 20.8 µM (inactive). The GI50 in assay [7] is 21.4 µM (inactive); in assay [8], 24.2 µM (inactive); in [9], 19.3 µM (inactive); in assay [10], 25.8 µM (inactive); in [11] it was 3.61 µM (inactive); in assay [12], 16.9 µM. In addition, the GI50 in [13] was 17.8 µM (inactive); in [14], 19.1 µM (inactive); in [15], 23.1 µM (inactive); in [17], 19.2 µM (inactive); in assay [18], 19.5 µM (inactive); in assay [19] it was 35 µM (inactive). Besides, the GI50 in assay [20] was 18 µM (inactive).

`C/C(=N\NC(=O)c1ccc(Cl)cc1)c1nc2cccnc2[nH]1`: the GI50 is 3.26 µM (inactive) in [1]; 32.7 µM (inactive) in assay [2]; 43.8 µM (inactive) in assay [3]; 25.2 µM (inactive) in [4]; 28.4 µM (inactive) in [5]; 15.7 µM (inactive) in [6]. Moreover, the GI50 is 8.93 µM (inactive) in [7]; 43 µM (inactive) in assay [8]; 32.7 µM (inactive) in assay [9]; > 100 µM (inactive) in [10]; 28.8 µM (inactive) in [11]; 11.7 µM in [12]. The GI50 in assay [13] is 14.3 µM (inactive); in assay [14] it was 10.4 µM (inactive); in [15] it was 17.1 µM (inactive); in assay [16] it was > 100 µM (inactive); in [17], 18.2 µM (inactive); in assay [18], 16 µM (inactive). For the same compound, the GI50 in [19] was 30.2 µM (inactive); in [20] it was 22.3 µM (inactive).

For `C=C1C(=O)O[C@@H]2/C=C(\C)CC/C=C(/COC(C)=O)C[C@@H](OC(C)=O)[C@@H]12`, the GI50 in assay [1] is 50.1 µM (inactive); in assay [2], 2.03 µM (inactive); in assay [3] it was 19 µM (inactive); in [4], 14.2 µM (inactive); in assay [5], 16 µM (inactive); in assay [6] it was 4.38 µM (inactive). The GI50 in assay [7] is 18.7 µM (inactive); in assay [8] it was 11.1 µM (inactive); in assay [9], 22.9 µM (inactive); in assay [10] it was 16.1 µM (inactive); in assay [11], 7.48 µM (inactive); in [12], 3.28 µM. Further, the GI50 in assay [13] was 3.45 µM (inactive); in [14], 0.718 µM (active); in assay [15] it was 11.3 µM (inactive); in [16], 17.4 µM (inactive); in [17] it was 16.2 µM (inactive); in assay [18], 5.18 µM (inactive). Moreover, the GI50 in [19] was 3.71 µM (inactive); in assay [20] it was 3.91 µM (inactive).

As for `COC1Cc2c(C)c(OC(C)=O)c3cccnc3c2O1` (stereo unspecified), the GI50 was 17.4 µM (inactive) in assay [1]; 6.79 µM (inactive) in [2]; > 100 µM (inactive) in [3]; 17.6 µM (inactive) in assay [4]; 13.9 µM (inactive) in assay [5]; 7.11 µM (inactive) in assay [6]. Further, the GI50 is 37.2 µM (inactive) in assay [7]; 15.4 µM (inactive) in [8]; 25.1 µM (inactive) in [9]; 36.7 µM (inactive) in [10]; > 100 µM (inactive) in assay [11]; 10.4 µM in assay [12]. Also, the GI50 was 13.8 µM (inactive) in assay [13]; 10.7 µM (inactive) in assay [14]; 16 µM (inactive) in [15]; 18.2 µM (inactive) in assay [16]; 48.2 µM (inactive) in [17]; 18.2 µM (inactive) in assay [18]. For the same compound, the GI50 in assay [19] was 18.9 µM (inactive); in assay [20], 19.7 µM (inactive).

Turning to `OC1(c2ccc(Cl)cc2)c2ccccc2-c2nc3ccccc3n21` (stereo unspecified), the GI50 in assay [1] is > 100 µM (inactive); in assay [2], 58.9 µM (inactive); in assay [3], > 100 µM (inactive); in assay [4], > 100 µM (inactive); in [5], 39.3 µM (inactive); in [6], > 100 µM (inactive). For the same compound, the GI50 in assay [7] was > 100 µM (inactive); in assay [8] it was 84.7 µM (inactive); in assay [9], 37.8 µM (inactive); in assay [10], 44.3 µM (inactive); in [11] it was > 100 µM (inactive); in assay [12], above 100 µM. Besides, the GI50 in [13] is > 100 µM (inactive); in [14] it was > 100 µM (inactive); in assay [15] it was > 100 µM (inactive); in assay [16] it was > 100 µM (inactive); in assay [17] it was > 100 µM (inactive); in [18], 49.2 µM (inactive). For the same compound, the GI50 in assay [19] was 95.3 µM (inactive); in assay [20] it was > 100 µM (inactive).

For the origin of these results see ChEMBL document CHEMBL1201862, “PubChem BioAssay data set” (2004).
